The test system of data set [1] is pooled human liver microsomes (HLM). Briefly: THT disappearance on incubation with pooled human liver microsomes, with heat-inactivation of FMO3 or carbon monoxide inactivation of CYPs. Format: in vitro ADME. The method, then:
THT (Sigma-Aldrich, Stockholm, Sweden) was received as a liquid solution and stock solutions were prepared daily and diluted in 50mM potassium phosphate buffer pH 7.4.
Linearity of the reactions with time, enzyme and THT concentrations was determined before measuring apparent enzyme kinetic constants; pooled human liver microsomes (HLM) (Cypex, Dundee, UK) were incubated at different enzyme concentrations with a range of THT concentrations (10–500μM).
Time curves were performed by incubating microsomes in 50mM potassium phosphate buffer (pH 7.4) in a total volume of 200μL. The reaction was started by the addition of NADPH (Sigma-Aldrich, St. Louis, USA) to a final concentration of 1mM and terminated by adding one volume of ice cold dicholormethane (Fluka, Seeze, Germany).
The relative contribution of CYPs and FMO3 in the metabolism of THT was studied by heat-inactivation of FMO3 in some incubations and, in other incubations, CYP enzymes in HLM were inactivated by carbon monoxide (AGA Gas, Enköping, Sweden) bubbling.
(§1) Incubations were performed in triplicate and negative controls (excluding NADPH, microsomes, THT or by terminating the incubations before the addition of NADPH) were run in parallel.
To measure THT and the secondary metabolite, sulfolane, the reactions were terminated by adding dichloromethane. Samples (180μL) were added to 10μM nicotine (20μL, Merck, Hoherbrunn, Germany), used as an internal standard, before extraction. The matrix was extracted by liquid-liquid extraction with dichloromethane (equal volumes, 200μL) after 30 sec of high speed vortexing. After extraction and centrifugation at 16000 g for 10 min, the organic phase was transferred into GC-MS tubes. […] Samples (180μL) were added to 10 μM of 3-methylsulfolane (20μL, TCI, Tokyo, Japan), used as an internal standard. […]
(§2) Concentrations of THT and its metabolites were measured using GC-MS [18] after validation for use with microsomal incubations according to the international guidelines.

In another data set the target is T1, CYP1A1 (Homo sapiens, UniProt P04798).
T1 construct: purchased BD Biosciences; host or cells: baculovirus infected insect cells
T1 sequence (P04798 1-512): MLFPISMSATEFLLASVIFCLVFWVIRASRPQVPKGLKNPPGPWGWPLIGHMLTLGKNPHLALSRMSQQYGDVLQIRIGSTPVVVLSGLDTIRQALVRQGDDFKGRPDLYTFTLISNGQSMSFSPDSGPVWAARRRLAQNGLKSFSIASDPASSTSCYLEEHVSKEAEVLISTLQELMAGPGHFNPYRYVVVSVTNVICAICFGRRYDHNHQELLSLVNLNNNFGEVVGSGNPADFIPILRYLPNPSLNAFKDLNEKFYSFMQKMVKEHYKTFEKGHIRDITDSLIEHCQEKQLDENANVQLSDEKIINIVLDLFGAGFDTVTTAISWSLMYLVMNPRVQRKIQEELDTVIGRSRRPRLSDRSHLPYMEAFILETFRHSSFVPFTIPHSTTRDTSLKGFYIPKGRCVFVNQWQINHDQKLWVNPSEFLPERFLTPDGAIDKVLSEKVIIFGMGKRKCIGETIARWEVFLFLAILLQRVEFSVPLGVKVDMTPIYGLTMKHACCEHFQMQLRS
Briefly: THT disappearance with recombinant cDNA-expressed enzyme microsomes. The following applies: 25μM THT, 35pmol CYP/mL. Format: in vitro ADME. The method, then:
(§3) To identify the enzymes involved in Bu metabolism, 11 microsomal batches (BD Biosciences, Stockholm, Sweden), each containing a separate cDNA-expressed enzyme, were incubated with 25μM THT. The microsomes contained FMO3, CYP1A1, CYP1A2, CYP2B6, CYP2C8, CYP2C9, CYP2C19, CYP2D6, CYP2E1, CYP3A4 or CYP4A11. Time curves (0, 5, 15, 30 and 60min) were performed at a concentration of 0.35mg protein /mL for FMO3 and 35pmol CYP/mL for the CYP enzymes. The recombinant enzymes were produced from human cDNA expressing each of them using baculovirus expression system. Baculovirus infected insect cells were used to prepare these microsomes.
as §1
(§4) To measure THT and the secondary metabolite, sulfolane, the reactions were terminated by adding dichloromethane. Samples (180μL) were added to 10μM nicotine (20μL, Merck, Hoherbrunn, Germany), used as an internal standard, before extraction. The matrix was extracted by liquid-liquid extraction with dichloromethane (equal volumes, 200μL) after 30 sec of high speed vortexing. After extraction and centrifugation at 16000 g for 10 min, the organic phase was transferred into GC-MS tubes. […] Samples (180μL) were added to 10 μM of 3-methylsulfolane (20μL, TCI, Tokyo, Japan), used as an internal standard. The matrix was lyophilized (< 1 mbar at 40°C under N2 stream) to dryness, the residue was dissolved in 10 μL water and 200 μL of ethyl acetate was added for extraction. Samples were vortexed for 30 sec at high speed and centrifuged at 16000 g for 10 min. The organic phase was transferred to GC-MS tubes.
as §2

The target in another data set is T2, CYP2E1 (Homo sapiens, UniProt P05181).
T2 construct: purchased BD Biosciences; host or cells: baculovirus infected insect cells
T2 sequence (P05181 whole entry): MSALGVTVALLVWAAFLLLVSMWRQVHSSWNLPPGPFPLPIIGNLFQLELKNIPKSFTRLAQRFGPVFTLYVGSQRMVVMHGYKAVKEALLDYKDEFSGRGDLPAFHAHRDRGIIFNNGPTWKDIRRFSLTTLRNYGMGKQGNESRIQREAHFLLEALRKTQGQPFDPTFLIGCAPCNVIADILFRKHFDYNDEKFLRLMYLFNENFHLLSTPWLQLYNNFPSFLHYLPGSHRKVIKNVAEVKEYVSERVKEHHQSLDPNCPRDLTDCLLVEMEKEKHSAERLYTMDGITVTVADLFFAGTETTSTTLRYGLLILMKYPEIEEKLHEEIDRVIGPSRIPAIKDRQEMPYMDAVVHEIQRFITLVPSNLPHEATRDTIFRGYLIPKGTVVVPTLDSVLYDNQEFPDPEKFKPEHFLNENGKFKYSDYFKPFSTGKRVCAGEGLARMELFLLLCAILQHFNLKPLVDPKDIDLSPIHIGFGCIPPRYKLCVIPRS
The description is as above. Format: in vitro ADME. The conditions noted are these: 25μM THT, 35pmol CYP/mL. As to the method: as §3, §1, §4, §2

A further data set has as its target T3, CYP3A4 (Homo sapiens, UniProt P08684).
T3 construct: purchased BD Biosciences; host or cells: baculovirus infected insect cells
The description is as above. Format: in vitro ADME. The conditions noted are these: 25μM THT, 35pmol CYP/mL. As to the method: as §3, §1, §4, §2

Data set [2] is described as follows: THT kinetics in mice (alone or after PTU pretreatment). Format: in vivo, Male C57BL/6N mice. The conditions noted are these: THT-treated mice (8.8mg/kg i.p.) pretreated with PTU 3mg/kg i.p. for 3 days. The method, then:
Standard laboratory chow and water ad libitum was introduced.
THT was also prepared as a 2mM solution in DMSO and the dose given was equimolar to the Bu treatment (i.e. 100μmol/kg or 8.8 mg/kg). […] At the appropriate time points (10min, 30min, 1h, 2h, 4h, 6h and 8h), mice (three mice at each time point) were anesthetized using 2% isoflurane and the blood samples were collected by heart puncture. Mice were euthanized by cervical dislocation. Plasma was separated and stored at -20°C.
A similar experiment was performed in a second group of mice, after 3 days of i.p. injections with the FMO3-inhibitor, Phenylthiourea (PTU, Sigma-Aldrich, Stockholm, Sweden, S1 Fig). PTU (3mg/kg) was dissolved in DMSO and diluted with physiological NaCl solution and then injected into the mice once daily followed by Bu or THT injections on the 4th day.
Briefly, 500 μL of plasma were diluted with 500 μL of water. Fifty microliters of the internal standard (1,5-bis(methanesulfonoxy)pentane; 38.5 μM) were added, followed by the addition of 1 mL of sodium iodide (8M, Merck, Darmstadt, Germany) and 400μL of n-heptane (Merck, Darmstadt, Germany). […] The organic phase was analyzed by GC-MS [18]. THT was quantified as described previously and the method was validated for use with mouse plasma before measuring both Bu and THT [19, 20].

The nature of data set [3]: Busulphan kinetics in mice (alone, after PTU pretreatment, or with high-dose THT). The conditions noted are these: mice injected with Bu and PTU.
Experimental: Male C57BL/6N mice (6–8 weeks old) were purchased from Charles River (Cologne, Germany). The mice were allowed to acclimatize to the surroundings for 2 weeks with a 12h dark/12h light cycle and randomized for treatment. Standard laboratory chow and water ad libitum was introduced.
To study Bu and THT kinetics, Bu (Sigma-Aldrich, Steinheim, Germany) was administered i.p. (25mg/kg or 100μmol/kg) as a 2mM solution in DMSO (Sigma-Aldrich, Stockholm, Sweden) [21]. THT was also prepared as a 2mM solution in DMSO and the dose given was equimolar to the Bu treatment (i.e. 100μmol/kg or 8.8 mg/kg). Upon injection, samples were diluted with physiological NaCl solution to a final DMSO concentration of 10% in the dosing solution. At the appropriate time points (10min, 30min, 1h, 2h, 4h, 6h and 8h), mice (three mice at each time point) were anesthetized using 2% isoflurane and the blood samples were collected by heart puncture. Mice were euthanized by cervical dislocation. Plasma was separated and stored at -20°C.
PTU (3mg/kg) was dissolved in DMSO and diluted with physiological NaCl solution and then injected into the mice once daily followed by Bu or THT injections on the 4th day. The mice were euthanized and plasma samples prepared as in the previous experiment.
To detect the effect of high THT concentrations on Bu metabolism, a third group of mice was injected with both Bu (100μmol/kg) and a high dose of THT (17.6mg/kg or 200μmol/kg) and samples prepared as described previously. All experiments including negative controls (mice injected with 10% DMSO in NaCl solution) and mice injected with PTU alone were performed in triplicates.
To quantify Bu, samples were extracted according to the method reported previously by Hassan et al. [24]. Briefly, 500 μL of plasma were diluted with 500 μL of water. Fifty microliters of the internal standard (1,5-bis(methanesulfonoxy)pentane; 38.5 μM) were added, followed by the addition of 1 mL of sodium iodide (8M, Merck, Darmstadt, Germany) and 400μL of n-heptane (Merck, Darmstadt, Germany). The tubes were placed under magnetic stirring in a water bath (70°C) for 45 min. During the reaction, busulphan and 1,5-bis(methanesulfonoxy)pentane were converted to 1,4-diiodobutane and 1,5-diiodopentane respectively and subsequently extracted with n-heptane [25]. The conversion of busulphan and 1,5-bis(methanesulfonoxy)pentane to 1,4-diiodobutane and 1,5-diiodopentane was over 90% [24]. The organic phase was analyzed by GC-MS [18]. THT was quantified as described previously and the method was validated for use with mouse plasma before measuring both Bu and THT [19, 20].
Kinetic parameters from in vivo studies were estimated using WinNonLin software (standard edition, version 2.0), while Microsoft Excel and SigmaPlot software (version 12.5, Systat software, Inc.) were utilized for in vitro kinetics.

T3 sequence (P08684 whole entry): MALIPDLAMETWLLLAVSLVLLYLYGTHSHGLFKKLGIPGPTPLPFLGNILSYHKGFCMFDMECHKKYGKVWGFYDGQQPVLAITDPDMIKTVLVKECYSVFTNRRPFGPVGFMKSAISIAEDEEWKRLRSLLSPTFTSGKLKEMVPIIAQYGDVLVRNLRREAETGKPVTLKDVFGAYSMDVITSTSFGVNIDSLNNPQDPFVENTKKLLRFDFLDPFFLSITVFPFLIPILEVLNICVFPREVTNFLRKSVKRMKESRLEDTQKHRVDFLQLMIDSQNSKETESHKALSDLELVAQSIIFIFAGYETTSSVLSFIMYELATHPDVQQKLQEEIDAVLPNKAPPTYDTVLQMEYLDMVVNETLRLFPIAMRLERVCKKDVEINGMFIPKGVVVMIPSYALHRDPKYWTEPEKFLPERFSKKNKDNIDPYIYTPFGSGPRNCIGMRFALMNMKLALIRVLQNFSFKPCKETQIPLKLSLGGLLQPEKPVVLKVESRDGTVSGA

As to `C1CCSC1` [THT, tetrahydrothiophene], in data set [1], the “THT disappearance on incubation with HLM” value is recorded as “rapid THT disappearance”. Moreover, the “reduction of THT disappearance by CYP inhibition by carbon monoxide” value in data set [1] is on record as 9%. Further, the “reduction of THT disappearance by inactivation of FMO3 (heat treatment)” value in data set [1] (within 60 min) was determined as 44%. The values for the v0 at CYP1A1, at CYP2E1 and at CYP3A4 were 1.68 nmol/min/mL, 1.41 nmol/min/mL and 3.66 nmol/min/mL, respectively. Also, the v0/CYP at CYP1A1 is 0.05 nmol/min/pmol CYP; at CYP2E1, 0.04 nmol/min/pmol CYP; at CYP3A4, 0.11 nmol/min/pmol CYP. In addition, in data set [2], the “THT concentrations versus THT only” value is on record as “significantly (P<0.05, t-test) higher”. Moreover, in data set [3], the “THT concentrations versus Bu alone” value is “significantly (P<0.05, t-test) increased”.

The values are drawn from paper PMC5679629, “Flavin-containing monooxygenase 3 (FMO3) role in busulphan metabolic pathway” (PLoS ONE, 2017).
